Reference: patent US11357759B2, “Composition including ADAM9 inhibitor and the use thereof” (China Medical University, priority 2017, dated 2022)

Assays:
ADAM17 = ADAM17 (Homo sapiens, UniProt P78536); assay: ADAM17 inhibition; type: biochemical
[1] = tested on: lung cancer cells in suspension culture; assay: Cytotoxicity of lung cancer cells in suspension culture; type: cell-based
From the text: The representative derivatives can reduce CDCP1 expression.

recombinant human ADAM9 = target: T1, recombinant human ADAM9 (Homo sapiens, UniProt Q13443); assay: ADAM9 enzymatic activity, ELISA system with fluorogenic peptide substrate; type: biochemical
T1 construct: purchased R&D system
T1 sequence (Q13443 29-819): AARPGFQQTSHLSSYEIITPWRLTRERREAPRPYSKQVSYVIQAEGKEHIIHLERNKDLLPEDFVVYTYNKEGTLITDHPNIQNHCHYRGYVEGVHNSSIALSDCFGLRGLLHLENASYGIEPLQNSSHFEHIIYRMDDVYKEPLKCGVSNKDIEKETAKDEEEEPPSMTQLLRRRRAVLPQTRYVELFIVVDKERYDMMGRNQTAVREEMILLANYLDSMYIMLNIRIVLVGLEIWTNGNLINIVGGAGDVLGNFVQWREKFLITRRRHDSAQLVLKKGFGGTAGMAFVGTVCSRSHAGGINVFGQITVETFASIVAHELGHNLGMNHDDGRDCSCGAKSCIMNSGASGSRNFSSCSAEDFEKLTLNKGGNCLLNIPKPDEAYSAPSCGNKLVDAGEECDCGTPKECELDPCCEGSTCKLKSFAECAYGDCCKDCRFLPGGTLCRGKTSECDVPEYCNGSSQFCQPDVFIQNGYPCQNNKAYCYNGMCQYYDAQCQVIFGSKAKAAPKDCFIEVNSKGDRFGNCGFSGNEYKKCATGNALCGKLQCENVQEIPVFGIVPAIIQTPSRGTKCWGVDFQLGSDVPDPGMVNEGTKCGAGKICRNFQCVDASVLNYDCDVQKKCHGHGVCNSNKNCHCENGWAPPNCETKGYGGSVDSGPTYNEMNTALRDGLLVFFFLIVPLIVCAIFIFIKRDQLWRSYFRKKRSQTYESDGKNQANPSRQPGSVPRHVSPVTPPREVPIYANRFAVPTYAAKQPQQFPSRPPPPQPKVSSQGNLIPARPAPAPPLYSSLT
Protocol: To measure the efficacy of ADAM9 inhibitors in suppression of ADAM9 enzymatic activity, we established an ELISA system using recombinant human ADAM9 and a fluorogenic peptide substrate (R&D system). Broad-spectrum metalloprotease inhibitor BB-94 was included as a positive control. […] To evaluate the specificity of ADAM9 inhibitors, we performed a migration inhibition assay in control (shGFP) and ADAM9 knockdown (shADAM9) lung cancer cells in the presence of 25 μM of each compound. […] To ensure the generality of the compounds in blocking anoikis-resistance of cancer cells, we determined the IC50 of representative compounds for anoikis (anchorage-free induced apoptosis) in cancer cell lines and leukocytes in anchorage-free culture conditions. […] Plating efficiency of Bm7 treated with 20 μM ADAM9 inhibitor and TC1 cells treated with 10 μM ADAM9 inhibitor was shown. Control and ADAM9 knockout (KO) TC1 cells were treated with ADAM9 inhibitor for 24 hours and then stained with annexin V and PI. The apoptotic cells (Annexin V positive cells) are indicated as the percentage of gated cells from three independent experiments with mean±SD.

TC1 lung cancer cells = assay: Metastatic lung tumor model (intravenous TC1), combination with cisplatin; type: in vivo, mice; details: ADAM9 inhibitor 4 mg/kg i.v., cisplatin 1.5 mg/kg i.p., twice a week for 4 weeks
Protocol: To investigate the synergistic effect of chemotherapy drugs and ADAM9 inhibitors, we measured the cytotoxicity of individual and combination of cisplatin and 12W0271 for 3 days in TC1 cells by MTT. […] ADAM9 inhibitor (4 mg/kg) was intravenous injected twice a week for 4 weeks and cisplatin (1.5 mg/kg) was intraperitoneal injected twice a week for 4 weeks.

4T1-luc cells = assay: 4T1-luc breast tumor model, adjuvant therapy after surgery; type: in vivo; details: for mice with no relapse: adjuvant after surgery, 12W0271 10 mg/kg s.c. (over 333 days), doxorubicin 1 mg/kg i.p., 12 times
Protocol: To compare the therapeutic effect of the inhibitors to chemotherapy agent doxorubicin in breast cancer treatment, we treated mice with 12W0271 or doxorubicin as adjuvant therapy after surgery of primary breast tumors. Balb/c mice received mammary fat pad injection of 5×10^4 4T1-luc cells. ADAM9 inhibitor was subcutaneously injected at 10 mg/kg once a day, 5 times per week for total 12 times. Doxorubicin was intraperitoneally injected at 1 mg/kg, once a day, 5 times per week for total 12 times. […] This breast tumor animal model is a clinically relevant triple negative breast cancer with poor outcome. In doxorubicin treatment, only one mouse (12.5%) had complete response with no relapse. Body weight of survived mice in doxorubicin and 12W0271 groups was determined on day 140. Dash line indicates average body weight in normal mice.

Sequence of ADAM17 (P78536 215-824, species assumed): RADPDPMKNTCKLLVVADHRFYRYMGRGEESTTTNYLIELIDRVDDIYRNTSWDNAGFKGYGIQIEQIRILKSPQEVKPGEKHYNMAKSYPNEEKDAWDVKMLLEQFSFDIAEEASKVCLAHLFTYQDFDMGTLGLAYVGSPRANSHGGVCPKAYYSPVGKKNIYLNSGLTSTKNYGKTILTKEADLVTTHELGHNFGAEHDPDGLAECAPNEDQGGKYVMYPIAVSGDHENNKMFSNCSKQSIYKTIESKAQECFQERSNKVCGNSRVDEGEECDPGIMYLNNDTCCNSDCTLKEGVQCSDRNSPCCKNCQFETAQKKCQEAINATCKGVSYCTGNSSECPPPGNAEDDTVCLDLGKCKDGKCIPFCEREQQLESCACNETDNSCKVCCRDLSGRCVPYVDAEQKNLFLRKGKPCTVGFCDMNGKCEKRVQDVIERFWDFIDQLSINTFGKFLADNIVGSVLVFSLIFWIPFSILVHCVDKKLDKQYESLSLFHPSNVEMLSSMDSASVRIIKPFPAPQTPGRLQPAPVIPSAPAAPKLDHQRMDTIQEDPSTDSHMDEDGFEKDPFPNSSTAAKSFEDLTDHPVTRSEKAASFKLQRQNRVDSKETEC

Compound	inhibitory effects in ADAM17 (ADAM17)	IC50 for the cytotoxicity of lung cancer cells, compared to compound 310 [1]	ADAM9 activity (recombinant human ADAM9)	survival time (TC1 lung cancer cells)	mice with no relapse (4T1-luc cells) [%]	condition and body size of survived mice (4T1-luc cells; long term, 10 mg/kg s.c.)
O=C(Nc1nc(CCN2C(=O)c3ccccc3C2=O)cs1)c1cc2ccccc2s1 [6X-0214]	no inhibitory effects	strongly reduced the IC50	decreased ADAM9 activity to a similar extent in a dose-dependent manner	–	–	–
N.N.[Cl][Pt][Cl] [cisplatin]	–	–	–	significantly prolonged survival time	–	–
COc1cccc2c1C(=O)c1c(O)c3c(c(O)c1C2=O)C[C@@](O)(C(=O)CO)C[C@@H]3O[C@H]1C[C@H](N)[C@H](O)[C@H](C)O1 [doxorubicin, reference compound]	–	–	–	–	12.5	–
O=C1c2ccccc2C(=O)N1CCc1csc(Nc2nc(CCN3C(=O)c4ccccc4C3=O)cs2)n1 [12W-0271]	no inhibitory effects	strongly reduced the IC50	decreased ADAM9 activity to a similar extent in a dose-dependent manner	–	37.5	healthy condition with bigger body size than the survival one in doxorubicin group
